In patent US10709706B2, “Nuclear transport modulators and uses thereof” (Karyopharm Therapeutics Inc., priority 2015, dated 2020):

What was measured:
Assay type in all cases: cell-based
Z138 cells = assay: MTT cell proliferation assay, Z138 cells; settings: Homo sapiens, Z-138, approximately 64-72 hours, 1 nM to 30 μM
Description: (§1) The MTT cell proliferation assay was used to study the cytotoxic properties of the compounds. The assay was performed according to the method described by Roche Molecular Biochemicals, with minor modifications. The assay is based on the cleavage of the tetrazolium salt, MTT, in the presence of an electron-coupling reagent. The water-insoluble formazan salt produced must be solubilized in an additional step. Cells grown in a 96-well tissue culture plate were incubated with the MTT solution for approximately 4 hours. After this incubation period, a water-insoluble formazan dye formed. After solubilization, the formazan dye was quantitated using a scanning multi-well spectrophotometer (ELISA reader). […] The cells were seeded at 5,000-10,000 cells in each well of 96-well plate in 100 μL of fresh culture medium and were allowed to attach overnight. The stock solutions of the compounds were diluted in 100 μL cell culture medium to obtain eight concentrations of each test compound, ranging from 1 nM to 30 μM. […] All optical densities were measured at 490 nm using a Vmax Kinetic Microplate Reader (Molecular Devices). In most cases, the assay was performed in duplicate and the results were presented as a mean percent inhibition to the negative control±SE. The following formula was used to calculate the percent of inhibition: Inhibition (%)=(1−(ODo/OD))×100.
(§2) The compounds were tested against Z138, MM1S and 3T3 cells. The Z138 cell line is a mature B-cell acute lymphoblastic leukemia cell line derived from a patient with chronic lymphocytic leukemia. The MM1S cell line was established from the peripheral blood of a human multiple myeloma patient. 3T3 cells are standard fibroblast cells; they were originally isolated from Swiss mouse embryo tissue.

3T3 cells = assay: MTT cell proliferation assay, 3T3 cells; settings: Mus musculus, NIH3T3, 3T3 fibroblast cells, approximately 64-72 hours, 1 nM to 30 μM
Description: as §1, §2

MM1S cells = assay: MTT cell proliferation assay, MM1S cells; settings: Homo sapiens, MM1.S, MM1S multiple myeloma cells, approximately 64-72 hours, 1 nM to 30 μM
Description: as §1, §2

Compound | IC50 (MM1S cells) | IC50 (Z138 cells) | IC50 (3T3 cells)
CCOC(=O)/C=C/c1cncc(-c2cc(C(F)(F)F)cc(C(F)(F)F)c2)n1 [Compound 101, ethyl (E)-3-(6-(3,5-bis(trifluoromethyl)phenyl)pyrazin-2-yl)acrylate] | > 30 µM | > 30 µM | > 30 µM
NC(=O)/C(=C/c1ccnc(-c2cc(C(F)(F)F)cc(C(F)(F)F)c2)n1)c1cccc(S(=O)(=O)N2CCCCC2)c1 [Compound 167, (E)-3-(2-(3,5-bis(trifluoromethyl)phenyl)pyrimidin-4-yl)-2-(3-(piperidin-1-ylsulfonyl)phenyl)acrylamide] | > 30 µM | > 30 µM | > 30 µM
CS(=O)(=O)c1ccc(/C(=C\c2ccnc(-c3cc(C(F)(F)F)cc(C(F)(F)F)c3)n2)C(N)=O)cc1 [Compound 127, (E)-3-(2-(3,5-bis(trifluoromethyl)phenyl)pyrimidin-4-yl)-2-(4-(methylsulfonyl)phenyl)acrylamide] | > 30 µM | > 30 µM | > 30 µM
NC(=O)/C(=C/c1ccnc(-c2cc(C(F)(F)F)cc(C(F)(F)F)c2)n1)c1cccc(S(=O)(=O)N2CC(F)C2)c1 [Compound 145, (E)-3-(2-(3,5-bis(trifluoromethyl)phenyl)pyrimidin-4-yl)-2-(3-((3-fluoroazetidin-1-yl)sulfonyl)phenyl)acrylamide] | > 30 µM | > 30 µM | > 30 µM
Cc1noc(C)c1/C(=C\c1ccnc(-c2cc(C(F)(F)F)cc(C(F)(F)F)c2)n1)C(N)=O [Compound 124, (E)-3-(2-(3,5-bis(trifluoromethyl)phenyl)pyrimidin-4-yl)-2-(3,5-dimethylisoxazol-4-yl)acrylamide] | > 30 µM | > 30 µM | > 30 µM
NC(=O)/C(=C/c1ccnc(-c2cc(C(F)(F)F)cc(C(F)(F)F)c2)n1)c1cccc(S(=O)(=O)N2CCC(F)CC2)c1 [Compound 131, (E)-3-(2-(3,5-bis(trifluoromethyl)phenyl)pyrimidin-4-yl)-2-(3-((4-fluoropiperidin-1-yl)sulfonyl)phenyl)acrylamide] | > 30 µM | > 30 µM | > 30 µM
NC(=O)/C(=C/c1ccnc(-c2cc(C(F)(F)F)cc(C(F)(F)F)c2)n1)c1cccc(Cl)c1Cl [Compound 141, (E)-3-(2-(3,5-bis(trifluoromethyl)phenyl)pyrimidin-4-yl)-2-(2,3-dichlorophenyl)acrylamide] | > 30 µM | > 30 µM | > 30 µM
NC(=O)/C(=C/c1ccnc(-c2cc(C(F)(F)F)cc(C(F)(F)F)c2)n1)c1ccc(S(=O)(=O)N2CC(F)C2)cc1 [Compound 126, (E)-3-(2-(3,5-bis(trifluoromethyl)phenyl)pyrimidin-4-yl)-2-(4-((3-fluoroazetidin-1-yl)sulfonyl)phenyl)acrylamide] | > 30 µM | > 30 µM | > 30 µM
NC(=O)/C(=C/c1ccnc(-c2cc(C(F)(F)F)cc(C(F)(F)F)c2)n1)c1ccsc1Cl [Compound 143, (E)-3-(2-(3,5-bis(trifluoromethyl)phenyl)pyrimidin-4-yl)-2-(2-chlorothiophen-3-yl)acrylamide] | > 30 µM | > 30 µM | > 30 µM
NC(=O)/C(=C/c1ccnc(-c2cc(C(F)(F)F)cc(C(F)(F)F)c2)n1)c1ccccc1 [Compound 120, (E)-3-(2-(3,5-bis(trifluoromethyl)phenyl)pyrimidin-4-yl)-2-phenylacrylamide] | > 30 µM | > 30 µM | > 30 µM
NC(=O)/C(=C/c1ccnc(-c2cc(C(F)(F)F)cc(C(F)(F)F)c2)n1)c1ccc2cn[nH]c2c1 [Compound 140, (E)-3-(2-(3,5-bis(trifluoromethyl)phenyl)pyrimidin-4-yl)-2-(1H-indazol-6-yl)acrylamide] | > 30 µM | 0.1 to 5 µM | > 30 µM
O=C(O)/C(=C/c1cncc(-c2cc(C(F)(F)F)cc(C(F)(F)F)c2)n1)c1cncnc1 [Compound 117, (E)-3-(6-(3,5-bis(trifluoromethyl)phenyl)pyrazin-2-yl)-2-(pyrimidin-5-yl)acrylic acid] | > 30 µM | > 30 µM | > 30 µM

Further lines, with some results ahead:

IC50 (MM1S cells) | Compound | IC50 (Z138 cells) | IC50 (3T3 cells)
0.1 to 5 µM | COC(=O)/C(Br)=C/c1cncc(-c2cc(C(F)(F)F)cc(C(F)(F)F)c2)n1 [Compound 115, methyl (Z)-3-(6-(3,5-bis(trifluoromethyl)phenyl)pyrazin-2-yl)-2-bromoacrylate] | 0.1 to 5 µM | 5 to 30 µM
0.1 to 5 µM | CCOC(=O)/C(Br)=C/c1cncc(-c2cc(C(F)(F)F)cc(C(F)(F)F)c2)n1 [Compound 102, ethyl (Z)-3-(6-(3,5-bis(trifluoromethyl)phenyl)pyrazin-2-yl)-2-bromoacrylate] | 0.1 to 5 µM | > 30 µM
5 to 30 µM | NC(=O)/C(=C/c1ccnc(-c2cc(C(F)(F)F)cc(C(F)(F)F)c2)n1)c1ccc(S(=O)(=O)N2CCC(F)(F)CC2)cc1 [Compound 159, (E)-3-(2-(3,5-bis(trifluoromethyl)phenyl)pyrimidin-4-yl)-2-(4-((4,4-difluoropiperidin-1-yl)sulfonyl)phenyl)acrylamide] | 0.1 to 5 µM | > 30 µM
< 0.1 µM | NC(=O)/C(=C/c1ccnc(-c2cc(C(F)(F)F)cc(C(F)(F)F)c2)n1)c1cncc2ccccc12 [Compound 158, (E)-3-(2-(3,5-bis(trifluoromethyl)phenyl)pyrimidin-4-yl)-2-(isoquinolin-4-yl)acrylamide] | < 0.1 µM | > 30 µM
> 30 µM | Cc1ccc(/C(=C\c2ccnc(-c3cc(C(F)(F)F)cc(C(F)(F)F)c3)n2)C(N)=O)cc1F [Compound 118, (E)-3-(2-(3,5-bis(trifluoromethyl)phenyl)pyrimidin-4-yl)-2-(3-fluoro-4-methylphenyl)acrylamide] | > 30 µM | > 30 µM
0.1 to 5 µM | NC(=O)/C(=C/c1ccnc(-c2cc(C(F)(F)F)cc(C(F)(F)F)c2)n1)c1cccc(F)n1 [Compound 150, (E)-3-(2-(3,5-bis(trifluoromethyl)phenyl)pyrimidin-4-yl)-2-(6-fluoropyridin-2-yl)acrylamide] | 0.1 to 5 µM | > 30 µM
5 to 30 µM | NC(=O)/C(=C/c1ccnc(-c2cc(C(F)(F)F)cc(C(F)(F)F)c2)n1)c1ccc(S(=O)(=O)N2CCCC2)cc1 [Compound 155, (E)-3-(2-(3,5-bis(trifluoromethyl)phenyl)pyrimidin-4-yl)-2-(4-(pyrrolidin-1-ylsulfonyl)phenyl)acrylamide] | > 30 µM | > 30 µM
< 0.1 µM | N#Cc1ncc(/C(=C\c2ccnc(-c3cc(C(F)(F)F)cc(C(F)(F)F)c3)n2)C(N)=O)cn1 [Compound 125, (E)-3-(2-(3,5-bis(trifluoromethyl)phenyl)pyrimidin-4-yl)-2-(2-cyanopyrimidin-5-yl)acrylamide] | < 0.1 µM | > 30 µM
0.1 to 5 µM | CCOC(=O)C(Br)C(Br)c1ccnc(-c2cc(C(F)(F)F)cc(C(F)(F)F)c2)n1 (stereo not drawn) [Compound 106, ethyl 3-(2-(3,5-bis(trifluoromethyl)phenyl)pyrimidin-4-yl)-2,3-dibromopropanoate] | 0.1 to 5 µM | > 30 µM
0.1 to 5 µM | NC(=O)/C(=C/c1ccnc(-c2cc(C(F)(F)F)cc(C(F)(F)F)c2)n1)c1cncc(F)c1 [Compound 121, (E)-3-(2-(3,5-bis(trifluoromethyl)phenyl)pyrimidin-4-yl)-2-(5-fluoropyridin-3-yl)acrylamide] | > 30 µM | > 30 µM
5 to 30 µM | COC(=O)/C(=C/c1cncc(-c2cc(C(F)(F)F)cc(C(F)(F)F)c2)n1)c1cncnc1 [Compound 116, methyl (E)-3-(6-(3,5-bis(trifluoromethyl)phenyl)pyrazin-2-yl)-2-(pyrimidin-5-yl)acrylate] | 5 to 30 µM | > 30 µM
0.1 to 5 µM | CC1(C)CN(S(=O)(=O)c2cccc(/C(=C\c3ccnc(-c4cc(C(F)(F)F)cc(C(F)(F)F)c4)n3)C(N)=O)c2)CCO1 [Compound 164, (E)-3-(2-(3,5-bis(trifluoromethyl)phenyl)pyrimidin-4-yl)-2-(3-((2,2-dimethylmorpholino)sulfonyl)phenyl)acrylamide] | > 30 µM | > 30 µM
5 to 30 µM | COC(=O)/C(Br)=C\c1nccc(-c2cc(C(F)(F)F)cc(C(F)(F)F)c2)n1 [Compound 108, methyl (E)-3-(4-(3,5-bis(trifluoromethyl)phenyl)pyrimidin-2-yl)-2-bromoacrylate] | 5 to 30 µM | > 30 µM
< 0.1 µM | N#Cc1ccc(/C(=C\c2ccnc(-c3cc(C(F)(F)F)cc(C(F)(F)F)c3)n2)C(N)=O)s1 [Compound 135, (Z)-3-(2-(3,5-bis(trifluoromethyl)phenyl)pyrimidin-4-yl)-2-(5-cyanothiophen-2-yl)acrylamide] | 0.1 to 5 µM | 5 to 30 µM
